{"source": "patent US6773896B2", "about": "“Method for direct measurement of coagulation factor VIIa activity in plasma” (Warner-Lambert Company, priority 2001, dated 2004)", "key": {"[1]": {"target": "T1, human FVIIa (Homo sapiens, UniProt P08709)", "T1 sequence (P08709 213-466 limits assumed)": "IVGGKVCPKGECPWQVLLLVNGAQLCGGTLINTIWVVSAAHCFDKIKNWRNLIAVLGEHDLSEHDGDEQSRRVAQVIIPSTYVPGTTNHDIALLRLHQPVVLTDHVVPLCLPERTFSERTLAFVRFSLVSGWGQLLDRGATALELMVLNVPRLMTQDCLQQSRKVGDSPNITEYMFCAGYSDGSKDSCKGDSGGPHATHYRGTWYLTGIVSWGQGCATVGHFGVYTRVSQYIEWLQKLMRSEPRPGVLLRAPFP", "T1 sequence (P08709 61-212 partner limits assumed)": "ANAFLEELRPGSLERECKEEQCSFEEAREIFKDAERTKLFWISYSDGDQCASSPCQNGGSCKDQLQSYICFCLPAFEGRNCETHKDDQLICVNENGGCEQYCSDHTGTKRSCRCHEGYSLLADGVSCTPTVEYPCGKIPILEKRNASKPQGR", "experiment": "Inhibition of human FVIIa (stated potency)", "format": "biochemical", "conditions": "read-out: IC50 against human FVIIa"}, "[2]": {"target": "T2, FVIIa/TF complex (Homo sapiens, UniProt P08709)", "T2 construct": "purchased American Diagnostica, Greenwich, Conn", "T2 sequence (P13726 33-295 partner, one chain of several)": "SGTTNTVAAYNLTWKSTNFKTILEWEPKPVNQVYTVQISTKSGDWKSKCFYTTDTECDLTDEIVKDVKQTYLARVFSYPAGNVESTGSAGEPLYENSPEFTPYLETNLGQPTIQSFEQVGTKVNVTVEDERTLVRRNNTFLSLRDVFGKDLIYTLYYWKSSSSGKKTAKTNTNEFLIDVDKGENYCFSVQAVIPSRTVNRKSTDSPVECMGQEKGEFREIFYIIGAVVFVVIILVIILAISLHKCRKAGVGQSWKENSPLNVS", "experiment": "In vitro one-stage FVIIa activity assay in human plasma (Spectrozyme FVIIa cleavage)", "format": "biochemical", "conditions": "for Effect on FVIIa activity in human plasma: 0.625% pooled human plasma, 10 nM FVIIa, 15 nM TF, vs own control", "description": "The proteolytic activity of FVIIa was measured by cleavage of paranitroanilide (pNA) substrate (Spectrozyme FVIIa) in a 96-well microtiter plate.\nA series of samples containing enzyme inhibitors (0-300 μM) were added to well in a 96-well microtiter plate containing Tris-buffer ([…] Tris, pH 7.4, 100 mM NaCl), 0.625% plasma, 0.1% BSA. After addition of FVIIa (10 nM in final concentration), the plate was incubated for 15 minutes at 37° C. Then the TF (15 nM in final concentration) and CaCl2 (5 mM in final concentration) were added, and the plate was incubated for additional 15 minutes at 37° C. again. After incubation, the substrate (Spectrozyme FVIIa) was added at a final concentration of 0.5 mM to result in a final volume of 200 μL/well. The rate of change in absorbance at 405 nm was monitored by a Softmax plate reader (Molecular Devices).\nAbove four inhibitors were evaluated in pooled human plasma for their inhibitory effects on FVIIa activity. Effects of FVIIai, 2-[6-(3-Carbamimidoyl-phenoxy)-3,5-difluoro-4-(1-methyl-3-phenyl-propylamino)-pyridin-2-yloxy]-5-dimethylamino-4-methyl-benzoic acid, ({2-(5-Carbamimidoyl-2-hydroxy-phenoxy)-3,5-difluoro-6-[3-(1-methyl-4,5-dihydro-1H-imidazol-2-yl)-phenoxy]-pyridin-4-yl}-methyl-amino)-acetic acid, and (S)-4-[3-(cyclopentylmethylamino)-2-[(2-naphthalenylsulfony)amino]-3-oxopropyl]benzenecarboximidic acid hydrazide on FVIIa activity were compared with their own control group. The activity of FVIIa was obtained with a final concentration of 0.625% human plasma, 10 nM FVIIa, 15 nM TF, 5 mM CaCl2, and 0.5 mM SPZFVIIa."}, "[3]": {"target": "T3, FVIIa (Homo sapiens, UniProt P08709)", "T3 construct": "purchased American Diagnostica, Greenwich, Conn", "T3 sequence (P13726 33-295 partner, one chain of several)": "as above", "experiment": "Ex vivo FVIIa activity assay in plasma from treated rabbits, two plasma concentrations", "conditions": "rabbit, 3 mg/kg IV bolus", "description": "(§1) The FVIIa activity was measured in the plasma collected from rabbits that received 2-[6-(3-Carbamimidoyl-phenoxy)-3,5-difluoro-4-(1-methyl-3-phenyl-propylamino)-pyridin-2-yloxy]-5-dimethylamino-4-methyl-benzoic acid, IV bolus, 3 mg/kg (n=3). Blood samples were collected before and 1, 5, 10, 30, and 60 minutes after the onset of administration, followed by plasma preparation. 2-[6-(3-Carbamimidoyl-phenoxy)-3,5-difluoro-4-(1-methyl-3-phenyl-propylamino)-pyridin-2-yloxy]-5-dimethylamino-4-methyl-benzoic acid in plasma was extracted using 4 volumes of CH3CN to 1 volume of plasma. Precipitated proteins were removed by centrifugation at 2000 g for 5 minutes. Solvent was decanted into small glass tubes and dried at 37° C. under a stream of nitrogen, then reconstituted in Tris-buffer. The method of FVIIa activity assay is the same as in vitro study. FVIIa activity was determined by measuring the rate of absorbance change at 405 nm due to cleavage of the spectrozyme FVIIa (0.5 mM) by FVIIa/TF complex. Plasma concentrations of 2-[6-(3-Carbamimidoyl-phenoxy)-3,5-difluoro-4-(1-methyl-3-phenyl-propylamino)-pyridin-2-yloxy]-5-dimethylamino-4-methyl-benzo acid were determined by using a standards inhibition curve that were generated from rabbit plasma containing known amount of inhibitor and processed identically to test samples. […]"}, "[4]": {"experiment": "Ex vivo study in rabbit plasma: plasma concentration calculated from FVIIa activity", "conditions": "3 mg/kg IV bolus, 1-60 min, n=3, calculated from FVIIa activity and IC50 standard curve", "description": "as §1"}, "[5]": {"target": "T3, FVIIa", "experiment": "Ex vivo FVIIa activity assay in plasma of hypercholesterolemic rabbits (balloon-induced injury model of thrombosis)", "design": "species or system rabbit", "conditions": "IV bolus 0.3 and 1.0 mg/kg, 3 minutes after administration", "description": "(§2) The FVIIa activity was measured in plasma collected from hypercholesterolemic rabbits in a balloon-induced injury model of thrombosis. The rabbits received two doses of 7-[(R)-3-(3-Amino-benzyl)-4-(4-amino-phenyl)-4-methyl-2,5-dioxo-imidazolidin-1-ylmethyl]-naphthalene-2-carboxamidine, IV bolus, 0.3 mg/kg (n=5) and 1.0 mg/kg (n=6). Blood samples were collected before and 3 minutes after administration, followed by plasma preparation. Plasma samples were extracted using CH3CN and reconstituted in Tris-buffer. The protocol is the same as ex vivo study of 2-[6-(3-Carbamimidoyl-phenoxy)-3,5-difluoro-4-(1-methyl-3-phenyl-propylamino)-pyridin-2-yloxy]-5-dimethylamino-4-methyl-benzoic acid. The plasma levels of 7-[(R)-3-(3-Amino-benzyl)-4-(4-amino-phenyl)-4-methyl-2,5-dioxo-imidazolidin-1-ylmethyl]-naphthalene-2-carboxamidine were calculated based on the test plasma FVIIa activity and an IC50 standard curve. […]\n(§3) The inhibitory effect and plasma concentration of 7-[(R)-3-(3-Amino-benzyl)-4-(4-amino-phenyl)-4-methyl-2,5-dioxo-imidazolidin-1-ylmethyl]-naphthalene-2-carboxamidine was determined in balloon-induced injury model of thrombosis in hypercholesterolemic rabbits. […] The inhibitory effect of 7-[(R)-3-(3-Amino-benzyl)-4-(4-amino-phenyl)-4-methyl-2,5-dioxo-imidazolidin-1-ylmethyl]-naphthalene-2-carboxamidine was measured by FVIIa activity assay. […]"}, "[6]": {"experiment": "Plasma level in hypercholesterolemic rabbits calculated from FVIIa activity", "format": "in vivo, rabbit", "conditions": "IV bolus 0.3 and 1.0 mg/kg, 3 minutes after administration", "description": "as §2, §3"}, "[7]": {"target": "thrombin (Homo sapiens, UniProt P00734)", "experiment": "Inhibition of thrombin (stated potency)", "format": "biochemical"}}, "data": [{"molecule": "Cc1cc(Oc2nc(Oc3cccc(C(=N)N)c3)c(F)c(NC(C)CCc3ccccc3)c2F)c(C(=O)O)cc1N(C)C", "note": "(centres unmarked) [2-[6-(3-Carbamimidoyl-phenoxy)-3,5-difluoro-4-(1-methyl-3-phenyl-propylamino)-pyridin-2-yloxy]-5-dimethylamino-4-methyl-benzoic acid]", "values": [{"measurement": "IC50", "setting": "[1]", "result": 15, "unit": "nM"}, {"measurement": "Effect on FVIIa activity in human plasma", "setting": "[2]; 300 nM", "result": "significantly decreased FVIIa activity"}, {"measurement": "Inhibition on FVIIa activity in human plasma over a series of concentrations", "setting": "[2]; human plasma, series of concentrations", "result": "dose-dependent inhibition"}, {"measurement": "Ex vivo inhibitory effect on FVIIa activity with 1.25% vs 0.625% plasma in the assay", "setting": "[3]", "result": "same inhibitory effect"}, {"measurement": "Plasma concentration after IV bolus administration", "setting": "[4]", "result": "time-dependent change in plasma concentration"}]}, {"molecule": "C[C@@]1(c2ccc(N)cc2)C(=O)N(Cc2ccc3ccc(C(=N)N)cc3c2)C(=O)N1Cc1cccc(N)c1", "note": "[7-[(R)-3-(3-Amino-benzyl)-4-(4-amino-phenyl)-4-methyl-2,5-dioxo-imidazolidin-1-ylmethyl]-naphthalene-2 carboxamidine]", "values": [{"measurement": "Ex vivo inhibitory effect on FVIIa activity", "setting": "[5]", "result": "dose-dependent changes in inhibitory effect"}, {"measurement": "Plasma level", "setting": "[6]", "result": "dose-dependent changes"}]}, {"molecule": "N=C(NN)c1ccc(C[C@H](NS(=O)(=O)c2ccc3ccccc3c2)C(=O)NCC2CCCC2)cc1", "note": "[(S)-4-[3-(cyclopentylmethylamino)-2-[(2-naphthalenylsulfonyl)amino]-3-oxoprpoyl]-benzenecarboximidic acid hydrazide]", "values": [{"measurement": "Effect on FVIIa activity in human plasma", "setting": "[2]; 100 nM", "result": "did not alter FVIIa activity"}, {"measurement": "IC50", "setting": "[7]; read-out: IC50 against thrombin", "result": 2, "unit": "nM"}, {"measurement": "Ki", "setting": "[7]; read-out: Ki against thrombin", "result": 0.38, "unit": "nM"}]}, {"molecule": "CN1CCN=C1c1cccc(Oc2nc(Oc3cc(C(=N)N)ccc3O)c(F)c(N(C)CC(=O)O)c2F)c1", "note": "[({2-(5-Carbamimidoyl-2-hydroxy-phenoxy)-3,5-difluoro-6-[3-(1-methyl-4,5-dihydro-1H-imidazol-2-yl)-phenoxy]-pyridin-4-yl}-methyl-amino)-acetic acid]", "values": [{"measurement": "Effect on FVIIa activity in human plasma", "setting": "[2]; 100 nM", "result": "did not alter FVIIa activity"}]}]}
